Reference: patent publication US20090149461A1, “METHOD OF TREATING CANCER” (ABBOTT LABORATORIES, priority 2007, published 2009)
Where two headings read alike, the source gives them in different places.

Tests used:
[1] = rat toxicity studies
[2] = Phase 1/2a study pharmacokinetics; format: in vivo, human; settings: for AUC: human
Experimental: There was no drug administered for the 72 hours following the first dose of the first cycle (Day-3) in order to assess the single-dose pharmacokinetics and toxicity.
Additional blood samples were collected at 0 hour (pre dose) on Day 14, Cycle 2 through Cycle 6. Sufficient blood were collected to provide approximately 1 mL plasma from each sample. A total of 27 blood samples (approximately 81 mL) were collected per subject for pharmacokinetic analysis during Cycle 1 and one additional blood sample per subject per cycle in the following cycles (up to Cycle 6).
The plasma samples were transferred using plastic pipettes into screw-capped polypropylene tubes labeled with the drug number name, type of sample (plasma), the protocol number, the subject number, the study cycle and day and the planned time of sampling relative to dosing. The plasma samples were frozen at −20° C. or colder within 1 hour after collection and will remain frozen until shipped.
Additional parameters may be calculated if useful in the interpretation of the data.
Subjects self-administered ABT-263 orally once daily (QD). Each dose were taken with approximately 240 mL of water. On days that pre-dose pharmacokinetic sampling is required (Cycle 1 Day-3, Cycle 1 Day 1, Cycle 1 Day 2, Cycle 1 Day 14, Cycle 2 Day 14, Cycle 3 Day 14, Cycle 4 Day 14, Cycle 5 Day 14 and Cycle 6 Day 14 in Phase 1 and on Cycle 1 Day 14 in Phase 2a) dosing will occur in the morning in the clinic to facilitate pharmacokinetic sampling.

[3] = tested on: human tumor cell lines derived from small cell lung carcinomas and lymphoid malignancies; assay: mechanism-based cytotoxicity in tumor cell lines
[4] = tested on: cultured human peripheral blood lymphocytes; assay: chromosomal aberration assay; format: cell-based; settings: with or without metabolic activation
[5] = rat, in vivo, 4 weeks
[6] = dog toxicity studies; format: in vivo
Description: Target organs in the dog included lymphoid tissues (spleen, Peyer's patch, lymph nodes, and thymus (a 2-week study)), male reproductive tissues (testes and epididymides), and pancreas. The microscopic changes observed in these target organs included decreased size of follicles, cortex, and/or germinal centers in lymphoid tissue; decreased cellularity in mantle zone, germinal centers, and/or interfollicular areas of lymphoid tissue; spermatogonia, spermatocyte and/or spermatid (round and elongated) depletion; and pancreatic acinar cell single cell necrosis. With the exception of pancreatic acinar cell single cell necrosis, these microscopic changes were also noted following a 4-week dose-free recovery period.

[7] = tested on: Salmonella-Escherichia coli; assay: Salmonella-Escherichia coli bacterial mutation assay (Ames); settings: with or without metabolic activation
[8] = biological target: T1, Bcl-B (Homo sapiens, UniProt Q9HD36); assay: binding affinity to anti-apoptotic Bcl-2 family proteins
T1 sequence (Q9HD36 1-204): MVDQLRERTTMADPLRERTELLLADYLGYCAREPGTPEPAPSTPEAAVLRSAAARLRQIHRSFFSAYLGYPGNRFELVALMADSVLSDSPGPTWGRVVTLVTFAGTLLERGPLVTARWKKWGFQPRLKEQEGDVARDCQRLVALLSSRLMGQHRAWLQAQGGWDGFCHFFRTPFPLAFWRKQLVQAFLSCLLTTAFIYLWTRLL

[9] = tested on: platelets; assay: decrease in circulating platelets in animals; format: in vivo, mouse, rat and dog
Description: Thrombocytopenia was seen after administration of a single dose and is present at the time of Cmax.

[10] = simulation of q.d. dosing in humans (exposure and platelets)
Description: Based on preclinical evidence, potential treatment-related side effects may include drug interactions, lymphopenia, testicular effects, and thrombocytopenia. […] Under these conditions, platelet values are expected to be ′25 K/.iL at steady state.

[11] = biological target: T2, Bcl-w (Homo sapiens, UniProt Q92843); assay: binding affinity to anti-apoptotic Bcl-2 family proteins
T2 sequence (Q92843 1-193): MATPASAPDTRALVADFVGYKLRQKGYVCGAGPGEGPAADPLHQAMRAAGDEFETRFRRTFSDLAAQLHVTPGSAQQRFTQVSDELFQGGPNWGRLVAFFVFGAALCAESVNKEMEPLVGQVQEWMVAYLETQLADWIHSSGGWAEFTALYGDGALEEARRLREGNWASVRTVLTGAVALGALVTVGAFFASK

[12] = tested on: WSU-DLCL2; assay: flank model of diffuse large B-cell lymphoma, monotherapy; format: in vivo; settings: 100 mg/kg/day p.o., q.d.×17 days
Description: (§1) Both of these tumors are known to express high levels of Bcl-2 due to the t(14;18) translocation. The WSU-DLCL2 line was isolated from a patient whose disease progressed following chemotherapy, radiation therapy and bone marrow transplantation and is recognized as a model of therapy-resistant lymphoma.

[13] = tested on: DoHH-2; assay: as above; format: in vivo; settings: DoHH-2 flank model; 100 mg/kg/day p.o., q.d.×17 days
Description: as §1

[14] = tested on: 22 cell lines consisting of multiple leukemia and lymphoma types (B-cell and T-cell malignancies); assay: single agent activity in leukemia and lymphoma cell line panel; format: cell-based
[15] = in vivo rat micronucleus assay
[16] = nonclinical pharmacokinetic profile in multiple animal models; format: in vivo; settings: all species studied
[17] = oral bioavailability from prototype formulations in dog; format: in vivo; settings: beagle, plasma, prototype solid dispersion and lipid-based formulations
Description: (§2) The oral bioavailability of the compound is formulation dependent, with values of 30% to 50% obtained from prototype solid dispersion and lipid-based formulations in dog. […] Elimination of total radioactivity is rapid, with 90% of the dose recovered within 24-hours post-dose.

[18] = (14C) ABT-263 absorption and elimination in rat; format: in vivo
Description: as §2

Compound: CC1(C)CCC(c2ccc(Cl)cc2)=C(CN2CCN(c3ccc(C(=O)NS(=O)(=O)c4ccc(N[C@H](CCN5CCOCC5)CSc5ccccc5)c(S(=O)(=O)C(F)(F)F)c4)cc3)CC2)C1 [ABT-263, N-(4-(4-((2-(4-chlorophenyl)-5,5-dimethyl-1-cyclohex-1-en-1-yl)methyl)piperazin-1-yl)benzoyl)-4-(((1R)-3-(morpholin-4-yl)-1-((phenylsulfanyl)methyl)propyl)amino)-3-((trifluoromethyl)sulfonyl)benzenesulfonamide]
- no-observed-adverse-effect-level (NOAEL) ([1]; 4-week rat toxicity study): not reached
- effect on liver enzymes (ALT, AST, alkaline phosphatase) ([1]; rat): minimal to mild increases
- effect on lymphocytes ([1]; rat): minimal to moderate decreases
- effect on platelets ([1]; rat): mild to marked decreases
- effect of food on oral absorption ([2]; fasting vs non-fasting): mild positive effect
- Inter-subject variability in exposure ([2]; human subjects): ~40%
- dose proportionality of exposure ([2]; human subjects): dose-proportional
- AUC ([2]; in vivo, preclinical target, read-out: Preclinical target AUC): 53000 to 88000 ng·h/mL
- AUC ([2]; plasma, oral, 225 mg (n=4), read-out: Mean AUC): 47000 ng·h/mL
- AUC ([2]; plasma, oral, 315 mg (n=5), read-out: Mean AUC): 100000 ng·h/mL
- AUC ([2]; plasma, oral, 440 mg (n=3), read-out: Mean AUC): 109000 ng·h/mL
- half-life ([2]; plasma, oral, human subjects): 14 to 20 h
- EC50 [3]: ≤ 1000 nM
- chromosome aberrations in human lymphocytes in vitro [4]: did not induce chromosome aberrations
- tolerated dose [5]: 10 mg/kg/day
- bleeding time ([6]; 2-week toxicity study, dogs with low platelet counts (<50 K/μL)): prolonged bleeding time
- time to full reversal of platelet effect after treatment ended ([6]; 4-week toxicity study in dogs): less than 7 days
- effect on lymphocytes ([6]; dog): mild decrease
- effect on platelets ([6]; dog): marked decrease
- NOAEL at 4 weeks ([6]; dog, in vivo, 4 weeks of administration to dogs): 1 mg/kg/day
- mutagenicity in the Ames assay [7]: not mutagenic
- Ki [8]: ≤ 1 nM
- time for platelet counts to return to normal values ([9]; after a single dose): approximately one week
- duration for which platelet toxicity was tolerated ([9]; rat and dog): up to 28 days
- expected biologically effective plasma concentration in humans [10]: 6.7 .iM
- Ki [11]: ≤ 1 nM
- monotherapy activity [12]: significant monotherapy activity
- monotherapy activity [13]: significant monotherapy activity
- cell lines with potent single agent activity [14]: 10 of 22
- clastogenicity in rat micronucleus assay [15]: not clastogenic
- half-life ([16]; CD-1 (mouse), Sprague-Dawley (rat), beagle (dog), mouse, rat, dog, cynomolgus monkey, plasma, read-out: terminal half-lives): 4.6 to 8.4 h
- plasma clearance [16]: very low
- volumes of distribution [16]: low
- bioavailability [17]: 30 to 50%
- absorption ([18]; (14C) ABT-263): slowly absorbed
- parent drug in systemic circulation ([18]; (14C) ABT-263): major component
- dose recovered (total radioactivity) ([18]; within 24-hours post-dose): 90%
